Measurements published in EP1160247A1, “6,5-Fused aromatic ring systems having enhanced phosphodiesterae IV inhibitory activity” (Euro-Celtique S.A., priority 2000, dated 2001).

Assays:
PDE III = biological target: T1, PDE III (Homo sapiens, UniProt Q14432); test: Type III PDE activity, hydrolysis of [3H]-cyclic AMP; assay type: biochemical; conditions: enzyme from human platelets; cyclic AMP 0.2 µM; 2.5% dimethyl sulfoxide
T1 construct: Fractions containing PDE III activity are pooled and dialyzed; from tissue; host or cells: human platelets (100,000 x g supernatant, DEAE-Trisacryl M fraction)
T1 sequence (Q14432 whole entry): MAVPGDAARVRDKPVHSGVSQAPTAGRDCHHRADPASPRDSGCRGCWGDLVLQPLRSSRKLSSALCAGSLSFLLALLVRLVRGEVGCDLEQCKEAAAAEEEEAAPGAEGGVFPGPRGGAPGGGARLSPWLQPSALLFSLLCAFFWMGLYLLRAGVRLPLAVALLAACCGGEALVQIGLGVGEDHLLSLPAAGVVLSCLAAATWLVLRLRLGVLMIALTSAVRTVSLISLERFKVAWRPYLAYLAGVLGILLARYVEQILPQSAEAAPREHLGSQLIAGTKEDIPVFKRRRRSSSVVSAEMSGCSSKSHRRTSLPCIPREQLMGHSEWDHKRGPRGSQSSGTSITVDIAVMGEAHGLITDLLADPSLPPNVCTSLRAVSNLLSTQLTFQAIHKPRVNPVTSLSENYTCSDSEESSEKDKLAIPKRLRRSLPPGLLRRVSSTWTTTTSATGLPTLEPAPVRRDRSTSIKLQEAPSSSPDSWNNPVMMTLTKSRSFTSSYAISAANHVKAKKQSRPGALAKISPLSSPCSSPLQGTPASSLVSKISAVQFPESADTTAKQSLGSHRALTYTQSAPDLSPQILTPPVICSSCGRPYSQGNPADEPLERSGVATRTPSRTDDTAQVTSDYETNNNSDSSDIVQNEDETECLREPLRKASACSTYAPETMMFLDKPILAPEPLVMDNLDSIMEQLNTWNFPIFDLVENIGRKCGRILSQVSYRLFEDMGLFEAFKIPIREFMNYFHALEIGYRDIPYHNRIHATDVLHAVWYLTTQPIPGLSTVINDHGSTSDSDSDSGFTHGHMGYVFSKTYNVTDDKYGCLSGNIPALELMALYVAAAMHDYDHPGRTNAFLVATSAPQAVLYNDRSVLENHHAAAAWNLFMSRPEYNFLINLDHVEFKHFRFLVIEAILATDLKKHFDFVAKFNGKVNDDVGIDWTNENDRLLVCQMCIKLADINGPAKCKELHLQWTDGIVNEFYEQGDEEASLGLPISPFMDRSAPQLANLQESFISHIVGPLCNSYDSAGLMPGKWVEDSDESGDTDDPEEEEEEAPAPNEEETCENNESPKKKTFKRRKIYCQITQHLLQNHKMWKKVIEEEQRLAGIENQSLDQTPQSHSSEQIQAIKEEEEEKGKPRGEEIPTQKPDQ
Description: The Type III PDE is isolated from human platelets using a procedure similar to that previously described by Weishaar, R.E.; Burrows, S.D.; Kobylarg, D.C., Quade, N.M.; Evans, D.B., Biochem. Pharmacol., 35:787, 1986. Briefly, 1-2 units of platelets are suspended in an equal volume of buffer (20 mM Tris-HCl, pH 7.5, containing 2 mM magnesium acetate, 1 mM dithiothreitol, and 5 mM Na2 EDTA). The protease inhibitor phenyl methyl-sulfonyl fluoride (PMSF) is also included in this buffer at a final concentration of 200 µM. The suspension is homogenized using a polytron and the homogenate centrifuged at 100,000 x g for 60 minutes. This and all subsequent procedures are performed at 0-4°C. The supernatant is then filtered through four layers of gauze and applied to a DEAE-Trisacryl M column, previously equilibrated with buffer B (20 mM Tris-HCl, pH 7.5, containing 1 mM magnesium acetate, 1 mM dithiothreitol and 200 µM PMSF). After application of the sample, the column is washed with several bed volumes of buffer B, after which the different forms of PDE are eluted from the column using two successive linear NaCl gradients (0.05-0.15 M, 300 ml total; 0.15-0.40 M, 200 ml total). Five milliliter fractions are collected and assayed for cyclic AMP and cyclic GMP PDE activity. Fractions containing PDE III activity are pooled and dialyzed overnight against 4 liters of buffer B. The dialyzed PDE III is then concentrated to 10% of the original volume, diluted to 50% with ethylene glycol monoethyl ether and stored at -20°C.
Enzyme activity is assessed by measuring the hydrolysis of [^3H]-cyclic AMP, as described by Thompson, W.J., Teraski, W.L., Epstein, P.N., Strada, S.J.: Adv. Cyclic Nucleotide Res. 10:69, 1979. The cyclic AMP concentration used in this assay is 0.2 µM, which approximates to the Km value. Protein concentration is adjusted to ensure that no more than 15% of the available substrate is hydrolyzed during the incubation period.
All test compounds are dissolved in dimethyl sulfoxide (final concentration of 2.5%).
The compounds are tested over concentration range: 0.1, 1, 10, 100 uM (n=1), and IC50 determinations are made using 5 appropriate concentrations (n=2).

PDE V = biological target: T2, PDE V (Homo sapiens, UniProt O76074); test: Type V PDE activity, hydrolysis of [3H]-cyclic GMP; assay type: biochemical; conditions: enzyme from platelets; cyclic GMP 0.2 uM; 2.5% dimethyl sulfoxide
T2 construct: from tissue; host or cells: platelets (supernatant, DEAE-Trisacryl M fraction)
Description: Briefly, 1-2 units of platelets are suspended in an equal volume of buffer A (20 mM Tris-HCl, pH 7.5, containing 2 mM magnesium acetate, 1 mM dithiothreitol, and 5 mM Na2EDTA) using a polytron. The proteinase inhibitor phenylmethylsulfonyl fluoride (PMSF) are also included in this buffer at a final concentration of 200 uM. This and all subsequent procedures are performed at 0-4°C. The homogenate is then centrifuged at […] for 60 minutes. The supernatant is then removed and filtered through four layers of gauze and applied to a DEAE-Trisacryl M column. The column is washed with several bed volumes of buffer B (20 mM Tris-HCl, pH 7.5, containing 2 mM magnesium acetate, 1 mM diothiothreitol, and […] PMSF) and eluted by two successive linear NaCl gradients (0.05-0.15 M, 300 ml total; 0.15-0.40 M, 200 ml total). Five ml fractions are collected and assayed for cyclic AMP and cyclic GMP PDE activity. Fractions that contain PDE V are pooled and dialyzed overnight against 4 L of buffer C (20 mM Tris-HCl, pH 7.5, containing 2 mM magnesium acetate and proteinase inhibitors). The dialyzed PDE V is then concentrated to 10% of the original volume, diluted to 50% with ethylene glycol monoethyl ether and stored at -20°C. PDE V can typically be retained for up to four weeks with little or no loss of activity.
The reference Type V PDE inhibitor zaprinast is evaluated with each assay.

Row | Structure (SMILES) | IC50 (PDE III) [µM] | IC50 (PDE V) [µM]
1 | CC(C)(C)c1cc(Cc2nc3cc(Cl)cc(C#Cc4nccs4)c3o2)cc(C(C)(C)C)c1O [Example 3, 5-chloro-2-(3,5-di-t-butyl-4-hydroxy-benzyl)-7-(2-(2-thiazolyl)-ethynyl)-benzoxazole] | > 300 | > 300
2 | CC(C)(C)c1cc(Cc2nc3cccc(C#Cc4ccccn4)c3o2)cc(C(C)(C)C)c1O [Example 2, 2-(3,5-di-t-butyl-4-hydroxy-benzyl)-7-(2-(2-pyridyl)-ethynyl)-benzoxazole] | > 300 | 35.1
3 | COc1ccc(C2CNC(=O)C2)cc1OC1CCCC1 (stereo not shown) [Rolipram, reference compound] | 620 | –
4 | CC(C)(C)c1cc(Cc2nc3cc(Cl)cc(C#Cc4ccccn4)c3o2)cc(C(C)(C)C)c1O [Example 1, 5-chloro-2-(3,5-di-t-butyl-4-hydroxy-benzyl)-7-(2-(2-pyridyl)-ethynyl)-benzoxazole] | > 300 | > 300
